Experimental findings from patent publication US6579881B2 (Eisai Co., Ltd., priority 1997, dated 2003) are described below.

Structures can show the parent of a compound that is named as a salt. Where two headings read alike, the source gives them in different places.

For data set [1], the system named is Straub's tail reaction (hyper-muscle tone in the tail). Briefly: Morphine induced Straub's tail phenomenon in mice. The data set is classed as in vivo. The conditions noted are these: Mus musculus, male ddY mice, 15 min before morphine hydrochloride 12.5 mg/kg s.c., statistically significant (p<0.05).
For another data set, the target named is serotonin 2 receptor (Rattus norvegicus, UniProt P14842). Kind of data set: Binding test on [3H] ketanserin (serotonin 2 receptor). The conditions noted are these: [3H] ketanserin 0.3 nM, receptor fraction of rat cerebral cortex; read-out: 5HT2.
serotonin 2 receptor, sequence (P14842 whole entry): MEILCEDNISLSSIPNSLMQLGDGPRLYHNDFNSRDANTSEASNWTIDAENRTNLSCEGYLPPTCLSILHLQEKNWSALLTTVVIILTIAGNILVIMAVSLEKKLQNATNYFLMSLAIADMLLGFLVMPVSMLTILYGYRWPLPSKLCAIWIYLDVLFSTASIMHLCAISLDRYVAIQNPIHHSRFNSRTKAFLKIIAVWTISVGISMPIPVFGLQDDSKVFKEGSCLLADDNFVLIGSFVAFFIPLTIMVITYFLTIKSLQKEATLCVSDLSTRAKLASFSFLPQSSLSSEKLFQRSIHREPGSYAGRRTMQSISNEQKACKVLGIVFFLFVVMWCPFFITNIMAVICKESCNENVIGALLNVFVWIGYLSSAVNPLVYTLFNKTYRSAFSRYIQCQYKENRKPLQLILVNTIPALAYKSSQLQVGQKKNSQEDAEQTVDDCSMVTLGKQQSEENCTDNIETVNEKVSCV
The target of another data set is α1 adrenalin receptor. Kind of data set: Binding test on [3H] prazosin (α1 adrenalin receptor). The conditions noted are these: [3H] prazosin about 0.2 nM, receptor fraction of rat cerebral cortex. Details: species or system rat.
For another data set, the target named is T1, serotonin 1A receptor (Rattus norvegicus, UniProt P19327).
T1 construct: To the receptor fraction of the hippocampus were added a test compound and 0.5 nM of [^3H]; 8-hydroxy-dipropylaminotetralin; from tissue; host or cells: SD rat hippocampus, membrane (receptor) fraction
T1 sequence (P19327 1-422): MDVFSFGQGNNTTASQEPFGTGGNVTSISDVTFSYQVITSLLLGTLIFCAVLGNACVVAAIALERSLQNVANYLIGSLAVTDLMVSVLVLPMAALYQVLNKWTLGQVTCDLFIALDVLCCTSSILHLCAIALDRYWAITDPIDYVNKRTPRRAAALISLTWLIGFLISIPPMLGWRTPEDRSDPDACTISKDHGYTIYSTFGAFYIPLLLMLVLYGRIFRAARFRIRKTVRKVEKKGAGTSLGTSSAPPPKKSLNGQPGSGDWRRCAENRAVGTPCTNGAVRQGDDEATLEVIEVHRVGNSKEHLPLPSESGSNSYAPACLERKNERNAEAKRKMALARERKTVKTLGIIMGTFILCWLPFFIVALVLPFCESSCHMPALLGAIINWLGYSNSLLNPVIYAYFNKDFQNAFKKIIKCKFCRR
Kind of data set: Binding test on [3H] 8-hydroxy-dipropylaminotetralin (serotonin 1A receptor). The note with it: [3H] 8-OH-DPAT 0.5 nM, receptor fraction of rat hippocampus; read-out: 5HT1a.

[2] abbreviates: po, p.o., read-out: minimal effective dose p.o.
The mark [3] stands for this setting: ip, i.p., read-out: minimal effective dose i.p.

As for `CC(C)NC(=O)Cc1ccc2c(c1)N(C1CCN(CCc3ccc(F)cc3)CC1)CC2` [Example 151, 1-[1-(4-fluorophenethyl)piperidin-4-yl]-6-(isopropylcarbamoylmethyl)indoline], in data set [1] (setting [2]), the minimal effective dose (usually the smallest amount tested that counted as effective) is 3 mg/kg. Moreover, the Ki came to 0.57 nM on serotonin 2 receptor, 292 nM on α1 adrenalin receptor and 8.84 nM at serotonin 1A receptor.
Turning to `Fc1ccc(CCN2CCC(C3CCc4ccccc43)CC2)cc1` (centres unmarked) [Example 248, 1-[1-(4-fluorophenethyl)piperidin-4-yl]indan], the values for the minimal effective dose in data set [1] (setting [3]) and in data set [1] (setting [2]) were no more than 10 mg/kg and 30 mg/kg, respectively. The Ki on serotonin 2 receptor was found to be 6.8 nM; at α1 adrenalin receptor, 75.3 nM; at serotonin 1A receptor, 2.9 nM.
`O/N=C/c1ccc(CCN2CCC(N3CCc4ccccc43)CC2)cc1` [Example 34, 1-[1-(4-hydroxyiminomethylphenethyl)piperidin-4-yl]indoline]: the minimal effective dose is no more than 10 mg/kg in data set [1] (setting [3]) and 30 mg/kg in data set [1] (setting [2]). Moreover, the Ki came out at 9.1 nM on serotonin 2 receptor and 1.9 nM on serotonin 1A receptor.
For the compound `CC(=O)N1CCC(Cc2ccc3c(c2)N(C2CCN(CCc4ccc(F)cc4)CC2)CC3)CC1` [Example 168, 1-[1-(4-fluorophenethyl)piperidin-4-yl]-6-[(1-acetylpiperidin-4-yl)methyl]indoline], the minimal effective dose in data set [1] (setting [2]) came to 10 mg/kg. In addition, the Ki at serotonin 2 receptor came to 4.06 nM; at α1 adrenalin receptor, 72.6 nM; at serotonin 1A receptor, 3.84 nM.
As to `COc1ccc2c(c1)N(C1CCN(CCc3ccc(F)cc3)CC1)CC2` [Example 106, 1-[1-(4-fluorophenethyl)piperidin-4-yl]-6-methoxyindoline], the minimal effective dose was 10 mg/kg in data set [1] (setting [3]) and greater than 30 mg/kg in data set [1] (setting [2]). For the same compound, the figures for the Ki at serotonin 2 receptor, on α1 adrenalin receptor and at serotonin 1A receptor were 6.4 nM, 71.3 nM and 0.7 nM, respectively.
Take `OCc1cccc(CCN2CCC(N3CCc4ccccc43)CC2)c1` [Example 22, 1-[1-(3-hydroxymethylphenethyl)piperidin-4-yl]indoline]: in data set [1] (setting [2]), the minimal effective dose was greater than 10 mg/kg. Besides, the Ki amounted to 12.2 nM on serotonin 2 receptor, 113 nM on α1 adrenalin receptor and 24 nM at serotonin 1A receptor.
On the same counts, the results for `CC(O)c1ccc2c(c1)N(C1CCN(CCc3ccc(F)cc3)CC1)CC2` (centres unmarked) [Example 137, 1-[1-(4-fluorophenethyl)piperidin-4-yl]-6-(1-hydroxyethyl)indoline] are 1 mg/kg, 6.68 nM, 126 nM and 0.65 nM.
For `COc1cccc(C(O)c2ccc3c(c2)N(C2CCN(CCc4ccc(F)cc4)CC2)CC3)n1` (centres unmarked) [Example 186, 1-[1-(4-fluorophenethyl)piperidin-4-yl]-6-[1-hydroxy-1-(2-methoxypyridin-6-yl)methyl]indoline], the minimal effective dose in data set [1] (setting [2]) is 10 mg/kg. The results for the Ki at serotonin 2 receptor and on serotonin 1A receptor were 3.32 nM and 14.6 nM, respectively.
Take `CNCc1ccc2c(c1)N(C1CCN(CCc3ccc(F)cc3)CC1)CC2` [Example 162, 1-[1-(4-fluorophenethyl)piperidin-4-yl]-6-N-methylaminomethylindoline]: the minimal effective dose in data set [1] (setting [3]) was 1 mg/kg; in data set [1] (setting [2]), greater than 10 mg/kg. Besides, the values for the Ki on serotonin 2 receptor, on α1 adrenalin receptor and at serotonin 1A receptor were 27.1 nM, 223 nM and 0.98 nM, respectively.
The like results for `CC(=O)NCc1ccc2c(c1)N(C1CCN(CCc3ccc(F)cc3)CC1)CC2` [Example 133, 1-[1-(4-fluorophenethyl)piperidin-4-yl]-6-acetamidomethylindoline] were, in that order, 0.3 mg/kg, no more than 0.3 mg/kg, 0.05 nM, 262 nM and 3.7 nM.
On to `COc1ncccc1C(O)c1ccc2c(c1)N(C1CCN(CCc3ccc(F)cc3)CC1)CC2` (centres unmarked) [Example 184, 1-[1-(4-fluorophenethyl)piperidin-4-yl]-6-[1-hydroxy-1-(2-methoxypyridin-3-yl)methyl]indoline], for which the minimal effective dose in data set [1] (setting [2]) stood at 3 mg/kg. The Ki is 3.06 nM on serotonin 2 receptor, 188 nM at α1 adrenalin receptor and 15.1 nM on serotonin 1A receptor.
Regarding `Clc1ccc2nsnc2c1NC1=NCCN1` [Tizanidine, tizanidine hydrochloride, reference compound], the minimal effective dose in data set [1] (setting [3]) and in data set [1] (setting [2]) was 1 mg/kg each time.
With `CN1CCC(=C2c3ccccc3C=Cc3ccccc32)CC1` [Cyproheptadine, cyproheptadine hydrochloride, reference compound], in data set [1] (setting [3]), the minimal effective dose worked out at 3 mg/kg.
In the case of `COc1ncc(CCN2CCC(N3CCc4ccccc43)CC2)s1` [Example 65, 1-[1-(2-methoxy-5-thiazolyl)ethylpiperidin-4-yl]indoline], the minimal effective dose in data set [1] (setting [2]) was 30 mg/kg. Further, the Ki at serotonin 2 receptor was found to be 4.8 nM; at serotonin 1A receptor, 8.8 nM.
Consider `CC(C)C(=O)NCc1ccc2ccn(C3CCN(CCc4ccc(F)cc4)CC3)c2c1` [Example 354, 1-[1-(4-fluorophenethyl)piperidin-4-yl]-6-isobutyrylaminomethylindole], for which the melting point (commonly the temperature, or range, at which the solid turns liquid) fell in the range of 97 to 98 °C. Also, the Ki on serotonin 2 receptor worked out at 4.79 nM. Also, at α1 adrenalin receptor, the Ki is 90.5 nM. In addition, at serotonin 1A receptor, the Ki is 1.22 nM.
With `CN(C)CCC=C1c2ccccc2C=Cc2ccccc21` [Cyclobenzaprine, cyclobenzaprine hydrochloride, reference compound], in data set [1] (setting [3]), the minimal effective dose was 10 mg/kg.
For the compound `COc1ccc(CCN2CCC(n3ccc4ccc(CNC(C)=O)cc43)CC2)cc1` [Example 351, 1-[1-(4-methoxyphenethyl)piperidin-4-yl]-6-acetamidomethylindole], the melting point was 101 to 102 °C. Further, at serotonin 2 receptor, the Ki is greater than 20 nM. Further, at α1 adrenalin receptor, the Ki was 175 nM. Further, on serotonin 1A receptor, the Ki was found to be 0.27 nM.
On the same counts, the results for `CCC(=O)NCc1ccc2ccn(C3CCN(CCc4ccc(F)cc4)CC3)c2c1` [Example 327, 1-[1-(4-fluorophenethyl)piperidin-4-yl]-6-propionylaminomethylindole] are 141 to 142 °C, 2.64 nM, 99 nM and 1.04 nM.
The like results for `CC(C)CNC(=O)Cc1ccc2ccn(C3CCN(CCc4ccc(F)cc4)CC3)c2c1` [Example 296, 1-[1-(4-fluorophenethyl)piperidin 4-yl]-6-[N-(isobutylcarbamoyl)methyl]indole] were, in that order, 131.8 to 132.2 °C, 2.73 nM, 238 nM and 0.32 nM.
For the compound `NCC(CC(=O)O)c1ccc(Cl)cc1` (centres unmarked) [Baclofen, baclofen, reference compound], the minimal effective dose stood at 3 mg/kg in data set [1] (setting [3]) and 10 mg/kg in data set [1] (setting [2]).
Consider `NC(=O)NCc1ccc2ccn(C3CCN(CCc4ccc(F)cc4)CC3)c2c1` [Example 393, 1-[1-(4-fluorophenethyl)piperidin-4-yl]-6-ureidomethylindole], for which the melting point is 171.9 to 172.8 °C. Moreover, at serotonin 2 receptor, the Ki was 2.54 nM. On α1 adrenalin receptor, this compound had a Ki of 37.8 nM. Besides, the Ki on serotonin 1A receptor is 0.85 nM.
The like results for `CC(=O)NCc1ccc2ccn(C3CCN(CCc4cccc(F)c4)CC3)c2c1` [Example 350, 1-[1-(3-fluorophenethyl)piperidin-4-yl]-6-acetamidomethylindole] were, in that order, 134 to 135 °C, 11.4 nM, 123 nM and 1.92 nM.
The like results for `O=C(CO)NCc1ccc2ccn(C3CCN(CCc4ccccc4F)CC3)c2c1` [Example 383, 1-[1-(2-fluorophenethyl]piperidin-4-yl]-6-hydroxyacetamidomethylindole] were, in that order, 151 to 152 °C, 1.81 nM, 120 nM and 5.34 nM.
On the same counts, the results for `O=C(NCc1ccc2ccn(C3CCN(CCc4ccc(F)cc4)CC3)c2c1)C(F)F` [Example 365, 1-[1-(4-fluorophenethyl)piperidin-4-yl]-6-difluoroacetamidomethylindole] are 79 to 80 °C, 3.11 nM, 61.6 nM and 0.42 nM.
For `O=C1NCCN1Cc1ccc2c(c1)N(C1CCN(CCc3ccc(F)cc3)CC1)CC2` [Example 206, 1-[1-(4-fluorophenethyl)piperidin-4-yl]-6-(2-imidazolidonyl)methylindoline], the minimal effective dose in data set [1] (setting [2]) turned out to be 10 mg/kg. In addition, the Ki amounted to 2.17 nM at serotonin 2 receptor and 1.49 nM on serotonin 1A receptor.
Consider `O=C(CF)NCc1ccc2ccn(C3CCN(CCc4ccc(F)cc4)CC3)c2c1` [Example 366, 1-[1-(4-fluorophenethyl)piperidin-4-yl]-6-fluoroacetamidomethylindole], for which the melting point was 106 to 108 °C. Further, the Ki at serotonin 2 receptor worked out at 2.05 nM. For the same compound, on α1 adrenalin receptor, the Ki came out at 74.6 nM. Further, the Ki at serotonin 1A receptor was 0.48 nM.
